What follows are compounds tested against T1, RORc ligand binding domain (Homo sapiens, UniProt P51449) (assay: In vitro RORc ligand binding assay (25-[3H]hydroxycholesterol displacement, filter binding)).
T1 construct: host or cells: E. coli
T1 sequence (P51449 269-508 limits assumed): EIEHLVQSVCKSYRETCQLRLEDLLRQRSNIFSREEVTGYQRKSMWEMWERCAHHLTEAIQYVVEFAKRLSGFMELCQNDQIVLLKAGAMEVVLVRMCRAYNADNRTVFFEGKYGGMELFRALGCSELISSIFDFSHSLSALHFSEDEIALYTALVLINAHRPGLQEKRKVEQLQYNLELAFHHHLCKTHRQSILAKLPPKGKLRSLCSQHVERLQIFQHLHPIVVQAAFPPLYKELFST
Method: This assay was used to determine a compound's potency in inhibiting activity of RORc by determining, Kiapp, IC50, or percent inhibition values.
On day of the assay, 100 uL of 0.05% CHAPS (in deionized H2O) was added to all wells of the GFB Unifilter plate and allowed soak for 1 h. A wash buffer of 50 mM HEPES (pH 7.4), 150 mM NaCl, and 5 mM MgCl2 was prepared to wash the filter plate. To prepare an assay buffer, BSA was added to the wash buffer to reach 0.01% and DTT was added to reach 1 mM.
The 20× compound stocks were diluted in DMSO with Assay Buffer 4-fold to reach 5× the final test concentration in 25% DMSO (10 uL compound+30 uL Assay Buffer). Solutions were mixed by aspiration several times with a pipette set on 50 uL volume. For the assay, 10 uL of 5× compound stock solutions in 25% DMSO were added to the assay plate in duplicate.
For two point screening, 10 mM stock compound solutions were diluted in DMSO to obtain 200 uM (20× the high test concentration) and then diluted 10-fold further to reach 20 uM (20× the low test concentration). The 20× stocks were diluted 4-fold with Assay Buffer (10 uL compound+30 uL Assay Buffer) to reach 5× the test concentrations (50 uM and 5 uM) and 10 uL were added to two assay plates for the duplicate wells. With each concentration tested on 2 plates, each set of 80 compounds used 4 assay plates (1 uM and 10 uM, with n=2).
For 25-hydroxycholesterol in 25% DMSO/75% Assay Buffer; 10 uL per well was used for NSB samples. Wells for Total Binding and No Receptor sample determination contained 10 uL of 25% DMSO/75% Assay Buffer per well.
Add 20 uL to all wells to reach 6 nM final concentration in the assay.
Stock receptor solution was diluted in assay buffer to obtain 1.5 ug/mL in Assay Buffer. 20 uL was added to all wells. For No Receptor samples, 20 uL Assay Buffer was substituted for receptor solution.
Assay plates were 96-well polypropylene V-bottom plates. 10 uL of 5× compound in 25% DMSO/75% Assay Buffer was added to Test wells. 10 uL of 25% DMSO/75% Assay Buffer was added to Total Binding or No Receptor wells. 10 uL of 5 uM 25-hydroxycholesterol in 25% DMSO/75% Assay Buffer was added to NSB wells. […] 20 uL of 1.5 ug/mL RORc receptor was added to wells (or 40 uL Assay Buffer to No R wells). Following addition to the wells, the plates were incubated 3 h at 25° C.
Using a Packard Filtermate Harvester, the filter plate were washed 4 times following transfer of the incubated samples. Plates were dry-filtered completely (2 h at 50° C. or overnight at room temperature). 50 uL Microscint 0 was added to all wells and read on Topcount protocol Inverted.

| IC50 | SMILES |
| --- | --- |
| 473 nM | CN(C)C(=O)N1CCO[C@H]([C@@]23CC[C@@H](c4cc(-c5c(F)cccc5F)nnc42)C3(C)C)C1 [Compound 86, (R)-2-((5R,8R)-3-(2,6-difluorophenyl)-9,9-dimethyl-5,6,7,8-tetrahydro-5,8-methanocinnolin-8-yl)-N,N-dimethylmorpholine-4-carboxamide] |
| 5.6 nM | Cc1nc(N2CCO[C@H]([C@@]34CC[C@@H](c5cc(-c6c(F)cccc6F)nnc53)C4(C)C)C2)n(Cc2ccccc2)n1 [Compound 143, 4-(2-benzyl-5-methyl-1,2,4-triazol-3-yl)-2-[5-(2,6-difluorophenyl)-11,11-dimethyl-3,4-diazatricyclo[6.2.1.02,7]undeca-2,4,6-trien-1-yl]morpholine] |
| 720 nM | CC1(C)[C@H]2CC[C@]1([C@H]1CN(C(=O)c3ccc(=O)[nH]n3)CCO1)c1nnc(-c3c(F)cccc3F)cc12 (stereo in doubt) [Compound 123, 3-[2-[5-(2,6-difluorophenyl)-11,11-dimethyl-3,4-diazatricyclo[6.2.1.02,7]undeca-2,4,6-trien-1-yl]morpholine-4-carbonyl]-1H-pyridazin-6-one] |
| 2.9 nM | CN1CCN(C(N)=O)C[C@H]1[C@@]12CC[C@@H](c3cc(-c4c(F)cccc4F)nnc31)C2(C)C [Compound 179, 3-[5-(2,6-difluorophenyl)-11,11-dimethyl-3,4-diazatricyclo[6.2.1.02,7]undeca-2,4,6-trien-1-yl]-4-methyl-piperazine-1-carboxamide] |
| 4 nM | Cc1coc(N2CCO[C@H]([C@@]34CC[C@@H](c5cc(-c6c(F)cccc6F)nnc53)C4(C)C)C2)n1 [Compound 134, 2-[5-(2,6-difluorophenyl)-11,11-dimethyl-3,4-diazatricyclo[6.2.1.02,7]undeca-2,4,6-trien-1-yl]-4-(4-methyloxazol-2-yl)morpholine] |
| 224 nM | CC1(C)[C@H]2CC[C@]1([C@@H]1CN(S(C)(=O)=O)CCO1)c1nnc(-c3c(F)cccc3F)cc12 [Compound 65, (R)-2-((5R,8R)-3-(2,6-difluorophenyl)-9,9-dimethyl-5,6,7,8-tetrahydro-5,8-methanocinnolin-8-yl)-4-(methylsulfonyl)morpholine] |
| 16 nM | CN1CCN(C)[C@H]([C@@]23CC[C@@H](c4cc(-c5c(F)cccc5F)nnc42)C3(C)C)C1 [Compound 180, 5-(2,6-difluorophenyl)-1-(1,4-dimethylpiperazin-2-yl)-11,11-dimethyl-3,4-diazatricyclo[6.2.1.02,7]undeca-2,4,6-triene] |
| 369 nM | CN(C)C(=O)N1CCO[C@H]([C@@]23CC[C@@H](c4cc(-c5c(F)cccc5F)nnc42)C3(C)C)C1 [Compound 88, (R)-2-((5R,8R)-3-(2,6-difluorophenyl)-9,9-dimethyl-5,6,7,8-tetrahydro-5,8-methanocinnolin-8-yl)-N,N-dimethylmorpholine-4-carboxamide] |
| 8.2 nM | CC1(C)[C@H]2CC[C@]1([C@H]1CCCN(C(=O)NC3CCC3)C1)c1nnc(-c3c(F)cccc3F)cc12 [Compound 149, N-cyclobutyl-3-[5-(2,6-difluorophenyl)-11,11-dimethyl-3,4-diazatricyclo[6.2.1.02,7]undeca-2,4,6-trien-1-yl]piperidine-1-carboxamide] |
| 7.4 nM | CC1(C)[C@H]2CC[C@]1([C@H]1CCCN(C(=O)NCCO)C1)c1nnc(-c3c(F)cccc3F)cc12 (stereo in doubt) [Compound 152, 3-[5-(2,6-difluorophenyl)-11,11-dimethyl-3,4-diazatricyclo[6.2.1.02,7]undeca-2,4,6-trien-1-yl]-N-(2-hydroxyethyl)piperidine-1-carboxamide] |
| 13 nM | CN1CCN[C@H]([C@@]23CC[C@@H](c4cc(-c5c(F)cccc5F)nnc42)C3(C)C)C1 [Compound 183, 5-(2,6-difluorophenyl)-11,11-dimethyl-1-(4-methylpiperazin-2-yl)-3,4-diazatricyclo[6.2.1.02,7]undeca-2,4,6-triene] |
| 1030 nM | CC1(C)[C@H]2CC[C@]1([C@H]1CN(S(C)(=O)=O)CCO1)c1nnc(-c3c(F)cccc3F)cc12 [Compound 73, (S)-2-((5R,8R)-3-(2,6-difluorophenyl)-9,9-dimethyl-5,6,7,8-tetrahydro-5,8-methanocinnolin-8-yl)-4-(methylsulfonyl)morpholine] |
| 13 nM | CC1(C)[C@H]2CC[C@]1([C@H]1CCCN(C(=O)NCCS(C)(=O)=O)C1)c1nnc(-c3c(F)cccc3F)cc12 [Compound 158, 3-[5-(2,6-difluorophenyl)-11,11-dimethyl-3,4-diazatricyclo[6.2.1.02,7]undeca-2,4,6-trien-1-yl]-N-(2-methylsulfonylethyl)piperidine-1-carboxamide] |
| 47 nM | CC[C@@H](O[C@]12CC[C@H](c3cc(-c4c(F)cccc4F)nnc31)C2(C)C)C(=O)O [Compound 113, (2R)-2-[[(1S,8R)-5-(2,6-difluorophenyl)-11,11-dimethyl-3,4-diazatricyclo[6.2.1.02,7]undeca-2,4,6-trien-1-yl]oxy]butanoic acid] |
| 133 nM | CC1(C)[C@H]2CC[C@]1(OCc1cnccn1)c1nnc(-c3c(F)cccc3F)cc12 [Compound 17, (5S,8R)-3-(2,6-difluorophenyl)-9,9-dimethyl-8-(pyrazin-2-ylmethoxy)-5,6,7,8-tetrahydro-5,8-methanocinnoline] |
| 325 nM | CNC(=O)c1cnc(O[C@@]23CC[C@@H](c4cc(-c5c(F)cccc5F)nnc42)C3(C)C)cn1 [Compound 9, 5-(((5S,8R)-3-(2,6-difluorophenyl)-9,9-dimethyl-5,6,7,8-tetrahydro-5,8-methanocinnolin-8-yl)oxy)-N-methylpyrazine-2-carboxamide] |
| 79.9 nM | CC1(C)[C@H]2CC[C@]1(Oc1cnccn1)c1nnc(-c3c(F)cccc3F)cc12 [Compound 11, (5S,8R)-3-(2,6-difluorophenyl)-9,9-dimethyl-8-(pyrazin-2-yloxy)-5,6,7,8-tetrahydro-5,8-methanocinnoline] |
| 61.5 nM | CC[C@@H](O[C@@]12CC[C@@H](c3cc(-c4c(F)cccc4F)nnc31)C2(C)C)C(=O)NCCS(C)(=O)=O [Compound 102, (R)-2-(((5S,8R)-3-(2,6-difluorophenyl)-9,9-dimethyl-5,6,7,8-tetrahydro-5,8-methanocinnolin-8-yl)oxy)-N-(2-(methylsulfonyl)ethyl)butanamide] |
| 72.2 nM | CNC(=O)c1nccnc1O[C@@]12CC[C@@H](c3cc(-c4c(F)cccc4F)nnc31)C2(C)C [Compound 15, 3-(((5S,8R)-3-(2,6-difluorophenyl)-9,9-dimethyl-5,6,7,8-tetrahydro-5,8-methanocinnolin-8-yl)oxy)-N-methylpyrazine-2-carboxamide] |
| 200 nM | CCC[C@H](O[C@@]12CC[C@@H](c3cc(-c4c(F)cccc4F)nnc31)C2(C)C)C(N)=O [Compound 50, (S)-2-(((5S,8R)-3-(2,6-difluorophenyl)-9,9-dimethyl-5,6,7,8-tetrahydro-5,8-methanocinnolin-8-yl)oxy)pentanamide] |
| 74.5 nM | CC1(C)[C@H]2CC[C@]1([C@@H]1CN(C(=O)c3cnco3)CCO1)c1nnc(-c3c(F)cccc3F)cc12 [Compound 90, ((R)-2-((5R,8R)-3-(2,6-difluorophenyl)-9,9-dimethyl-5,6,7,8-tetrahydro-5,8-methanocinnolin-8-yl)morpholino)(oxazol-5-yl)methanone] |
| 277 nM | Cc1noc(N2CCO[C@H]([C@@]34CC[C@@H](c5cc(-c6c(F)cccc6F)nnc53)C4(C)C)C2)n1 [Compound 84, (R)-2-((5R,8R)-3-(2,6-difluorophenyl)-9,9-dimethyl-5,6,7,8-tetrahydro-5,8-methanocinnolin-8-yl)-4-(3-methyl-1,2,4-oxadiazol-5-yl)morpholine] |
| 370 nM | CC1(C)[C@H]2CC[C@]1([C@H]1CCCN(C(=O)NC3CC(O)C3)C1)c1nnc(-c3c(F)cccc3F)cc12 (stereo in doubt) [Compound 148, 3-[5-(2,6-difluorophenyl)-11,11-dimethyl-3,4-diazatricyclo[6.2.1.02,7]undeca-2,4,6-trien-1-yl]-N-(3-hydroxycyclobutyl)piperidine-1-carboxamide] |

— US9994551B2, “Pyridazine derivatives as RORc modulators” (Genentech, Inc., priority 2015, dated 2018)
